Source: ChEMBL document CHEMBL5104090, “Recent advances in the medicinal chemistry of carbonic anhydrase inhibitors” (Eur J Med Chem, 2021)
Values belong to the molecule of their own block, whether it stands above or below them.

Columns and labels:
Carbonic anhydrase 1 [1] = molecular target: T1, Carbonic anhydrase 1 (Homo sapiens, UniProt P00915)
Carbonic anhydrase 2 [2] = molecular target: T2, Carbonic anhydrase 2 (Homo sapiens, UniProt P00918)
Carbonic anhydrase 4 [3] = molecular target: T3, Carbonic anhydrase 4 (Homo sapiens, UniProt P22748)
Carbonic anhydrase 1 [4] = molecular target: T1, Carbonic anhydrase 1; remark: listed apart in the source
Carbonic anhydrase 2 [5] = molecular target: T2, Carbonic anhydrase 2; remark: listed apart in the source
Carbonic anhydrase 4 [6] = molecular target: T3, Carbonic anhydrase 4; remark: listed apart in the source
Carbonic anhydrase 9 [7] = molecular target: T4, Carbonic anhydrase 9 (Homo sapiens, UniProt Q16790)
Carbonic anhydrase 9 [8] = molecular target: T4, Carbonic anhydrase 9; remark: listed apart in the source
Carbonic anhydrase 12 [9] = molecular target: T5, Carbonic anhydrase 12 (Homo sapiens, UniProt O43570)
Carbonic anhydrase 9 [10] = molecular target: T4, Carbonic anhydrase 9; remark: listed apart in the source
Ca9-22 = test: cells; type: functional; conditions: Homo sapiens, time 48 hrs
Description: Cytotoxicity against human Ca9-22 cells assessed as cell growth inhibition measured after 48 hrs by MTT assay

Carbonic anhydrase 1 [11] = molecular target: T1, Carbonic anhydrase 1; remark: listed apart in the source
Carbonic anhydrase 9 [12] = molecular target: T4, Carbonic anhydrase 9; remark: listed apart in the source
Carbonic anhydrase 12 [13] = molecular target: T5, Carbonic anhydrase 12; remark: listed apart in the source

T3 sequence (P22748 whole entry): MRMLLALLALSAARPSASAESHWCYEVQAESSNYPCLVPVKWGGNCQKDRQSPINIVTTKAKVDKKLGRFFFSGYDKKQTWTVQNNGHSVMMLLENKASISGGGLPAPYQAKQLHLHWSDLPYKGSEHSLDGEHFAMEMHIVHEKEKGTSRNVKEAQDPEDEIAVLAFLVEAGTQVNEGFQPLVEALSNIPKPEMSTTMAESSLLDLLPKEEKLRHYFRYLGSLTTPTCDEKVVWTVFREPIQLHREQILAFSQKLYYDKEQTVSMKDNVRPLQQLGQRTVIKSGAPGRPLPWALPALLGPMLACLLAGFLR
T1 sequence (P00915 whole entry): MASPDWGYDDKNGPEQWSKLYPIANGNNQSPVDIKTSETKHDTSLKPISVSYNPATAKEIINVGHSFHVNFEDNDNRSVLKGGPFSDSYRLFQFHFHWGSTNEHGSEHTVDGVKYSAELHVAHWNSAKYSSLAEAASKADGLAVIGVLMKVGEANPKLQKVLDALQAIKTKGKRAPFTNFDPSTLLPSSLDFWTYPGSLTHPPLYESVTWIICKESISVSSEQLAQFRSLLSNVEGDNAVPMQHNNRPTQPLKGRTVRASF
T5 sequence (O43570 whole entry): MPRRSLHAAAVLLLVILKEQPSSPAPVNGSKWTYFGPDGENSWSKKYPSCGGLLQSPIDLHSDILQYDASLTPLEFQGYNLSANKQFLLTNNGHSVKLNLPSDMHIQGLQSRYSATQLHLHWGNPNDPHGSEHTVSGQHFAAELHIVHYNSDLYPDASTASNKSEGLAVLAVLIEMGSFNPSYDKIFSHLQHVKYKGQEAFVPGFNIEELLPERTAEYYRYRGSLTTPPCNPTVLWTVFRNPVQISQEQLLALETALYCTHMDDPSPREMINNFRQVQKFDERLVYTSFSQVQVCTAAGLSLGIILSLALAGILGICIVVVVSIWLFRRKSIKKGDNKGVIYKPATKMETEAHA

- Ki (Carbonic anhydrase 1 [1]): > 100000 nM
- Ki (Carbonic anhydrase 2 [2]): > 100000 nM
Compound: CCOC(=O)c1ccc(-c2ccc3c(c2)C=CCS(=O)(=O)O3)cc1

- Ki (Carbonic anhydrase 4 [3]): 6.5 nM
Compound: Cc1ccc(C(=O)/C=C/Nc2cccc(S(N)(=O)=O)c2)cc1

- Ki (Carbonic anhydrase 1 [4]): > 10000 nM
- Ki (Carbonic anhydrase 2 [5]): > 10000 nM
- Ki (Carbonic anhydrase 4 [6]): > 10000 nM
- Ki (Carbonic anhydrase 9 [7]): > 10000 nM
Compound: CCOC(=O)c1ccc(N2C(=O)c3ccc(C(=O)OC)cc3C2=O)cc1

- Ki (Carbonic anhydrase 1 [4]): > 10000 nM
- Ki (Carbonic anhydrase 2 [5]): > 10000 nM
- Ki (Carbonic anhydrase 4 [6]): > 10000 nM
- Ki (Carbonic anhydrase 9 [7]): > 10000 nM
Compound: O=C(O)c1ccc2c(c1)C(=O)N(CCc1ccccc1)C2=O

- Ki (Carbonic anhydrase 9 [8]): 15.8 nM
- Ki (Carbonic anhydrase 12 [9]): 8.6 nM
Compound: CCN(CC)c1ccc(/C=N/NC(=O)c2ccc(S(N)(=O)=O)cc2)c(O)c1

- Ki (Carbonic anhydrase 1 [4]): > 10000 nM
- Ki (Carbonic anhydrase 2 [5]): > 10000 nM
- Ki (Carbonic anhydrase 4 [6]): > 10000 nM
- Ki (Carbonic anhydrase 9 [7]): > 10000 nM
Compound: O=C(O)c1ccc(N2C(=O)c3ccc(C(=O)O)cc3C2=O)cc1

- Ki (Carbonic anhydrase 1 [1]): > 100000 nM
- Ki (Carbonic anhydrase 2 [2]): > 100000 nM
Compound: COc1ccc(-c2ccc3c(c2)C=CCS(=O)(=O)O3)cc1

- Ki (Carbonic anhydrase 4 [3]): 6.5 nM
Compound: NS(=O)(=O)c1cccc(N/C=C/C(=O)c2ccc(Cl)cc2)c1

- Ki (Carbonic anhydrase 9 [8]): 0.21 nM
- Ki (Carbonic anhydrase 4 [3]): 6.5 nM
Compound: COc1ccc(C(=O)/C=C/Nc2ccc(S(N)(=O)=O)cc2)cc1

- Ki (Carbonic anhydrase 1 [1]): > 100000 nM
- Ki (Carbonic anhydrase 2 [2]): > 100000 nM
Compound: O=S1(=O)CC=Cc2ccc(Br)cc2O1

- Ki (Carbonic anhydrase 4 [3]): 6.5 nM
Compound: COc1ccc(C(=O)/C=C/Nc2cccc(S(N)(=O)=O)c2)cc1

- Ki (Carbonic anhydrase 1 [1]): > 100000 nM
- Ki (Carbonic anhydrase 2 [2]): > 100000 nM
Compound: O=S1(=O)CC=Cc2cc(-c3ccc(C(F)(F)F)cc3)ccc2O1

- Ki (Carbonic anhydrase 9 [8]): 8.5 nM
- Ki (Carbonic anhydrase 12 [9]): 8.6 nM
Compound: NS(=O)(=O)c1ccc(C(=O)N/N=C/c2ccccc2O)cc1

- Ki (Carbonic anhydrase 1 [4]): 54.1 nM
- Ki (Carbonic anhydrase 2 [5]): 25.9 nM
- Ki (Carbonic anhydrase 4 [6]): 317 nM
- Ki (Carbonic anhydrase 9 [7]): 54.1 nM
Compound: NS(=O)(=O)c1ccc(N2C(=O)c3ccc(C(=O)O)cc3C2=O)cc1

- Ki (Carbonic anhydrase 9 [8]): 57.8 nM
- Ki (Carbonic anhydrase 12 [9]): 57.8 nM
Compound: N#CCSc1nc2ccccc2c(=O)n1CCc1ccc(S(N)(=O)=O)cc1

- Ki (Carbonic anhydrase 4 [3]): 6.5 nM
Compound: NS(=O)(=O)c1cccc(N/C=C/C(=O)c2ccc3ccccc3c2)c1

- Ki (Carbonic anhydrase 1 [4]): 54.1 nM
- Ki (Carbonic anhydrase 2 [5]): 25.9 nM
- Ki (Carbonic anhydrase 4 [6]): 317 nM
- Ki (Carbonic anhydrase 9 [7]): 46 nM
Compound: COC(=O)c1ccc2c(c1)C(=O)N(c1ccc(S(N)(=O)=O)cc1)C2=O

- Ki (Carbonic anhydrase 1 [4]): > 10000 nM
- Ki (Carbonic anhydrase 2 [5]): > 10000 nM
- Ki (Carbonic anhydrase 4 [6]): > 10000 nM
- Ki (Carbonic anhydrase 9 [7]): > 10000 nM
Compound: COC(=O)c1ccc2c(c1)C(=O)N(c1ccc(C(=O)O)cc1)C2=O

- Ki (Carbonic anhydrase 9 [8]): 19.3 nM
- Ki (Carbonic anhydrase 12 [9]): 17.2 nM
Compound: O=C1c2ccccc2C(=O)N1CCCSc1nc2ccccc2c(=O)n1CCc1ccccc1

- Ki (Carbonic anhydrase 9 [8]): 57.8 nM
- Ki (Carbonic anhydrase 12 [9]): 57.8 nM
Compound: CSc1nc2ccccc2c(=O)n1CCc1ccc(S(N)(=O)=O)cc1

- Ki (Carbonic anhydrase 9 [8]): 19.3 nM
- Ki (Carbonic anhydrase 12 [9]): 17.2 nM
Compound: NS(=O)(=O)c1ccc(CCn2c(SCc3ccc(Cl)cc3)nc3ccccc3c2=O)cc1

- Ki (Carbonic anhydrase 1 [1]): > 100000 nM
- Ki (Carbonic anhydrase 2 [2]): > 100000 nM
Compound: O=S1(=O)CC=Cc2ccc(-c3ccc(C(F)(F)F)cc3)cc2O1

- Ki (Carbonic anhydrase 12 [9]): 17.2 nM
Compound: NS(=O)(=O)c1ccc(CCn2c(SCc3ccc([N+](=O)[O-])cc3)nc3ccccc3c2=O)cc1

- Ki (Carbonic anhydrase 1 [1]): > 100000 nM
- Ki (Carbonic anhydrase 2 [2]): > 100000 nM
Compound: O=S1(=O)CC=Cc2cccc(Br)c2O1

- Ki (Carbonic anhydrase 4 [3]): 6.5 nM
Compound: NS(=O)(=O)c1cccc(N/C=C/C(=O)c2ccc([N+](=O)[O-])cc2)c1

- Ki (Carbonic anhydrase 9 [8]): 19.3 nM
- Ki (Carbonic anhydrase 12 [9]): 17.2 nM
Compound: NS(=O)(=O)c1ccc(CCn2c(SCc3ccc(Br)cc3)nc3ccccc3c2=O)cc1

- IC50 (Carbonic anhydrase 9 [10]): 643 nM
Compound: Cc1ncc([N+](=O)[O-])n1CCS(N)(=O)=O

- Ki (Carbonic anhydrase 1 [1]): > 100000 nM
- Ki (Carbonic anhydrase 2 [2]): > 100000 nM
Compound: COc1ccc(-c2cccc3c2OS(=O)(=O)CC=C3)cc1

- Ki (Carbonic anhydrase 1 [1]): > 100000 nM
- Ki (Carbonic anhydrase 2 [2]): > 100000 nM
Compound: O=S1(=O)CC=Cc2ccc(-c3ccc(F)cc3)cc2O1

- Ki (Carbonic anhydrase 9 [8]): 8.5 nM
- Ki (Carbonic anhydrase 12 [9]): 8.6 nM
Compound: NS(=O)(=O)c1ccc(C(=O)N/N=C/c2cccc(O)c2)cc1

- Ki (Carbonic anhydrase 1 [4]): > 10000 nM
- Ki (Carbonic anhydrase 2 [5]): > 10000 nM
- Ki (Carbonic anhydrase 4 [6]): > 10000 nM
- Ki (Carbonic anhydrase 9 [7]): > 10000 nM
Compound: COC(=O)c1ccc2c(c1)C(=O)N(CCc1ccccc1)C2=O

- Ki (Carbonic anhydrase 9 [8]): 19.3 nM
- Ki (Carbonic anhydrase 12 [9]): 17.2 nM
Compound: NS(=O)(=O)c1ccc(CCn2c(SCc3ccccc3)nc3ccccc3c2=O)cc1

- Ki (Carbonic anhydrase 1 [4]): 54.1 nM
- Ki (Carbonic anhydrase 2 [5]): 25.9 nM
- Ki (Carbonic anhydrase 4 [6]): 317 nM
- Ki (Carbonic anhydrase 9 [7]): 54.1 nM
Compound: COC(=O)c1ccc2c(c1)C(=O)N(CCc1ccc(S(N)(=O)=O)cc1)C2=O

- Ki (Carbonic anhydrase 1 [4]): 54.1 nM
- Ki (Carbonic anhydrase 2 [5]): 25.9 nM
- Ki (Carbonic anhydrase 4 [6]): 317 nM
- Ki (Carbonic anhydrase 9 [7]): 54.1 nM
Compound: NS(=O)(=O)c1ccc(CCN2C(=O)c3ccc(C(=O)O)cc3C2=O)cc1

- Ki (Carbonic anhydrase 1 [1]): > 100000 nM
- Ki (Carbonic anhydrase 2 [2]): > 100000 nM
Compound: O=S1(=O)CC=Cc2cccc(-c3ccccc3)c2O1

- Ki (Carbonic anhydrase 1 [11]): > 230 nM
- Ki (Carbonic anhydrase 9 [12]): > 44 nM
- Ki (Carbonic anhydrase 12 [13]): > 9 nM
Compound: COc1ccc(C2CC(c3ccccc3)=NN2c2ccc(S(N)(=O)=O)cc2)c(OC)c1OC (configuration not stated)
- CC50 (Ca9-22): 6300 nM

- Ki (Carbonic anhydrase 1 [1]): > 100000 nM
- Ki (Carbonic anhydrase 2 [2]): > 100000 nM
Compound: O=S1(=O)CC=Cc2cccc(-c3ccc(F)cc3)c2O1
